19 compounds from ChEMBL document CHEMBL4354780, “Targeting S. mutans biofilms: a perspective on preventing dental caries” (Medchemcomm, 2019) can be followed below.

Series [1] can be described thus: Binding affinity to Streptococcus mutans GtfB.
A short description of series [2]: Binding affinity to Streptococcus mutans GtfC.
Series [3] deals with Streptococcus mutans. Nature of the series: Antibiofilm activity against Streptococcus mutans assessed as inhibition of biofilm formation. The format is functional, organism-based. The conditions noted are these: for IC50: Streptococcus mutans.
Series [4] has as its system Streptococcus mutans. Nature of the series: Antibacterial activity against Streptococcus mutans assessed as inhibition of planktonic growth relative to control. The format is organism-based.
The target in series [5] is T1, Sortase A (Streptococcus mutans, UniProt Q8CM62).
T1 sequence (Q8CM62 whole entry): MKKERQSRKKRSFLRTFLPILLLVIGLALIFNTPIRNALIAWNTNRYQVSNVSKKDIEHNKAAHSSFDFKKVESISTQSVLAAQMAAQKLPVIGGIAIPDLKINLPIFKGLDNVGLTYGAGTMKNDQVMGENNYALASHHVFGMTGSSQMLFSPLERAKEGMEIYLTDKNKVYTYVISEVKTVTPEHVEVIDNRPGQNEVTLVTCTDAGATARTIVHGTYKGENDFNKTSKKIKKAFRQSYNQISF
Nature of the series: Binding affinity to Streptococcus mutans Sortase A.

For series [6], the system named is Streptococcus mutans. Nature of the series: Antibiofilm activity against Streptococcus mutans assessed as inhibition of biofilm formation at 250 uM on saliva-coated glass slides relative to control. The format is functional.
For series [7], the system named is Streptococcus mutans. Briefly: Antibiofilm activity against 24 hrs-old biofilm of Streptococcus mutans assessed as reduction in cell viability at 5 ug/ml relative to control. The format is functional.
Series [8] deals with Streptococcus mutans. Briefly: Antibiofilm activity against 24 hrs-old biofilm of Streptococcus mutans assessed as reduction in cell viability at 10 ug/ml relative to control. The format is functional.
Series [9] deals with Streptococcus mutans. Briefly: Antibacterial activity against Streptococcus mutans. The format is organism-based.
In series [10] the test system is Streptococcus mutans. Nature of the series: Antibiofilm activity against Streptococcus mutans assessed as inhibition of biofilm formation by measuring reduction in cell adherence at sub-MIC level relative to control. The format is functional.
Series [11] relates to Streptococcus mutans. Nature of the series: Antibiofilm activity against Streptococcus mutans assessed as inhibition of biofilm formation by measuring drug level causing induction of micro-colony phenotype. The format is functional.
Series [12] concerns Streptococcus mutans. Nature of the series: Inhibition of Streptococcus mutans F-ATPase activity relative to control. The following applies: concentration not given here.
Series [13] has as its system Streptococcus mutans. Nature of the series: Antibiofilm activity against Streptococcus mutans assessed as inhibition of biofilm formation on using surface coated compound at 0.06 uM relative to control. The format is functional.
Series [14] deals with Streptococcus mutans. Briefly: Antibiofilm activity against 24 hrs-old biofilm of Streptococcus mutans assessed as reduction in cell viability relative to control. It counts as functional.
The test system of series [15] is Streptococcus mutans. Nature of the series: Antibiofilm activity against Streptococcus mutans assessed as reduction in biomass at 0.63 ug/ml relative to control. The format is functional.
A short description of series [16]: Inhibition of Streptococcus mutans VicK autophosphorylation activity.
Series [17] can be described thus: Inhibition of Streptococcus mutans CiaH autophosphorylation activity.
Series [18] can be described thus: Inhibition of Streptococcus mutans LiaS autophosphorylation activity.
In series [19] the test system is Streptococcus mutans. Briefly: Antibiofilm activity against Streptococcus mutans assessed as inhibition of biofilm formation on hydroxyapatite surface at 5 ug/ml relative to control. The format is functional.
Series [20] has as its system Streptococcus mutans. Nature of the series: Antibiofilm activity against Streptococcus mutans assessed as decrease in biofilm viability at 0.053 to 53 uM by LIVE/DEAD staining based assay relative to control. It counts as functional.
Series [21] has as its system Streptococcus mutans. Nature of the series: Antibiofilm activity against Streptococcus mutans assessed as reduction in cell viability at 50 ug/ml relative to control. The format is functional.
For series [22], the system named is Streptococcus mutans. Briefly: Antibiofilm activity against Streptococcus mutans assessed as inhibition of biofilm formation at 12.5 ug/ml relative to control. It counts as functional.
In series [23] the test system is Streptococcus mutans. Nature of the series: Antibiofilm activity against Streptococcus mutans assessed as inhibition of biofilm formation at 200 ug/ml after 4 hrs by crystal violet staining based assay relative to control. The format is functional.
Series [24] has as its system Streptococcus mutans. Briefly: Antibiofilm activity against Streptococcus mutans assessed as inhibition of biofilm formation at 200 ug/ml after 4 hrs by Congo red staining based assay relative to control. The format is functional.

In brackets after ≈: the same amount, converted by molar mass.

As for `Oc1ccc(/C=C/c2cc(O)cc(O)c2)cc1` [RESVERATROL], the equilibrium dissociation constant (Kd) was found to be 144 µM in series [1] and 510 µM in [2].

Turning to `CCCCCCCCCCCCCCCc1c[nH]c(N)n1.Cl`, the IC50 in [3] came out at 0.94 µM. Moreover, the “growth inhibition (GI)” value in series [4] is under 13%.

Take `O=C(/C=C/c1ccccc1)c1ccccc1` [CHALCONE]: in series [5], the IC50 was determined as 5 µM. In series [6], the inhibition at 250 µM turned out to be 90%.

With `C[C@H]1/C=C/[C@H]2OC(C)(C)O[C@H]2C(=O)O[C@H](c2cccc(CCCCC(=O)O)c2)[C@@H](C)CCC1`, the MBIC50 in series [3] turned out to be 63 µM.

With `COc1ccc(CCNc2nc3ccccc3nc2NCCc2ccc(OC)cc2)cc1`, the inhibition at 5 µg/mL in series [7] was 46%. For the same compound, in series [8], the inhibition at 10 µg/mL amounted to 79%.

In the case of `CCC[C@@H]1CCC[C@]2(CCC)C(=O)CCC[C@@H]12`, the MBIC50 in [3] came out at 39 µg/mL. Moreover, in series [9], the MIC is 156.25 µg/mL. Also, the “inhibition (INH)” value in series [10] stood at 50%.

As to `C=CCc1ccc(O)c(OC)c1` [EUGENOL], in series [11], the INH worked out at 0.3125 µg/mL.

On to `O=C(O[C@@H]1Cc2c(O)cc(O)cc2O[C@@H]1c1cc(O)c(O)c(O)c1)c1cc(O)c(O)c(O)c1` [EPIGALOCATECHIN GALLATE], for which, in [3], the MBIC90 was 15.6 µg/mL. Moreover, the MIC in [9] came to 31.25 µg/mL. The inhibition in series [12] stood at 50%.

As for `O=C1C=C/C(=C\Br)O1`, the inhibition at 0.06 µM in series [13] came to 63%.

In turn, `Oc1cc(O)cc(/C=C/c2ccc(O)c(O)c2)c1` [PICEATANNOL] registered a Kd in [2] of 14.6 µM. Besides, in [3], the IC50 worked out at 52 µM.

In the case of `O=C1C=C(Br)/C(=C/Br)O1`, the “inhibition (INH)” value in series [14] is reported as 60%.

On to `CCC(C)C1(O)C(C)C(=O)c2c(c(OC)c3ccc(-c4ccc5c(Cl)c6c(c(O)c5c4O)C(=O)C(C)C(O)(C(C)C)C6/C(=C\C(=O)O)OC)c(O)c3c2O)C1/C(C)=C\C(=O)O` (stereo not given), for which the inhibition at 0.63 µg/mL in [15] is 60%. Also, the half-inhibitory concentration (IC50) came to 2.53 µg/mL (≈ 2.94 µM) in [16], 4.29 µg/mL (≈ 4.98 µM) in series [17] and 4.96 µg/mL (≈ 5.76 µM) in series [18].

The compound `O=c1c(O)c(-c2ccc(O)cc2O)oc2cc(O)cc(O)c12` [MORIN] returned a concentration for half-maximal inhibition (IC50) in [5] of 27.2 µM.

Regarding `Cc1cc(O)c2c(c1)C(=O)c1cc(O)cc(O)c1C2=O` [EMODIN], the inhibition at 5 µg/mL in series [19] stood at 90%.

Consider `CO[C@H](CC(=O)O)[C@@H](C)C(=O)[C@H](C)/C=C(\C)[C@H]1OC(=O)[C@H](O)[C@H](O)/C=C/[C@H](C)CCC[C@@H]1C`, for which the “inhibition (INH)” value in series [20] was 55 - 65%.

`COc1cc(/C=C/C(=O)CC(=O)/C=C/c2ccc(O)c(OC)c2)ccc1O` [CURCUMIN] showed a half-inhibitory concentration (IC50) in [5] of 10.2 µM. Further, in series [9], the MIC turned out to be 125 µM.

In the case of `Cc1cccc(N/C=C2/C=C(c3ccc(Cl)cc3)OC2=O)n1`, in [21], the inhibition at 50 µg/mL was 75%.

With `NC(=O)c1ccccc1NC(=O)c1cc2cc([N+](=O)[O-])ccc2s1`, the results for the Kd in series [1] and in series [2] were 3.7 µM and 0.0469 µM, respectively. For the same compound, the inhibition at 12.5 µg/mL in series [22] turned out to be 85%.

`CCCCCCCCCCCCCCCCCC(=O)Oc1cc(C(=O)O[C@@H]2Cc3c(O)cc(O)cc3O[C@@H]2c2cc(OC(=O)CCCCCCCCCCCCCCCCC)c(O)c(OC(=O)CCCCCCCCCCCCCCCCC)c2)cc(OC(=O)CCCCCCCCCCCCCCCCC)c1O`: the inhibition at 200 µg/mL in series [23] and in series [24] was 100% each time.

Broadly, the Kd is the constant that tells how readily two partners part at equilibrium. The low end stands for higher affinity, the high end for lower affinity. A word on the IC50: it is the concentration that gives 50% inhibition. One may read the inhibition as the drop in the measured response relative to a control, in per cent.
